Measured values taken from patent US20190015467A1, “AGENT FOR PREVENTING OR AMELIORATING UNEVEN SKIN TONE” (KAO CORPORATION, priority 2017, published 2019).

Key:
[1] = tested on: keratinocytes (neonatal foreskin); test: Autophagy-activating action: LC3-II protein in keratinocytes by Western blotting; assay type: cell-based, human; details: 48 hours culture, same toosendanin concentration in both media, control solvent (ethanol)
[2] = tested on: skin at the elbow site of AA; test: Organ culture of AA elbow skin with Torin 1: Fontana-Masson melanin staining and image analysis; assay type: cell-based, human; details: Torin 1 1 μM, tissue culture 5 days, vs absence of Torin 1; n=4, paired t-test p<0.05
Protocol: Meanwhile, the sections were subjected to melanin staining (Melanin Stain), separately. The sections were immersed in a 4% PFA/PBS solution for 10 minutes to be fixed. The fixed sections were washed with distilled water (DDW) for 5 minutes 3 times in total, and thereafter a Fontana-ammonia silver solution (Muto) was added dropwise thereto, followed by treatment at room temperature for 30 minutes. Then, the sections were washed with DDW for 5 minutes 3 times in total, and a Kernechtrot solution (Muto) was added dropwise thereto, followed by treatment for 3 minutes, for nuclear staining. The excess staining solution was washed away with DDW, followed by dehydration, clearing, and mounting with Malinol (Muto).
From skin at the elbow site of four AA women, skin tissues were collected through punch biopsy by a dermatologist. The collected tissues were halved with a scalpel, and the tissues were cultured for 5 days in the presence or absence of mTORC1 inhibitor, Torin 1 (Cayman Chemical, #10997) to a final concentration of 1 μM. […] Further, melanin was visualized by Fontana-Masson staining, and the epidermal stratum corneum thickness and the melanin deposition area were calculated using an image analysis software (Image J).

[3] = tested on: skin at the elbow site of AA; test: Organ culture of AA elbow skin with Torin 1: immunohistochemical analyses of autophagy-related, keratinization and proliferation markers; assay type: cell-based, human; details: Torin 1 1 μM, tissue culture 5 days
Protocol: (§1) The technique of immunohistochemical analyses will be described. The sections were immersed in acetone or a 4% PFA/PBS solution for 10 minutes to be fixed. The fixed sections were washed with PBS-T (0.05% Tween-20/PBS) for 5 minutes 3 times in total and were blocked with a 1% BSA/PBS solution for 30 minutes. Subsequently, after the sections were subjected to overnight treatment at 4° C. with a primary antibody and were washed with PBS for 5 minutes 3 times in total, a secondary antibody (Jackson ImmunoResearch, 1:100 or 1:200) fluorescent labeled with FITC, RR-X, or Cy3 was added dropwise thereto, followed by treatment at 37° C. for 30 minutes. Thereafter, the sections were washed with PBS-T for 5 minutes 3 times in total and with PBS for 5 minutes once, mounted by aqueous encapsulant containing a nuclear-staining agent (H-1200: Vector Laboratories). Refer to Table 1 for the type of primary antibody, the tissue fixation conditions, and the concentration used.
The produced preparations were subjected to tissue observation and photographing using an inverted microscope (AxioVision, manufactured by Carl Zeiss Vision International GmbH) or a confocal laser microscope (LSM710, manufactured by Carl Zeiss Vision International GmbH). The captured images were analyzed using an image analysis software, and the expression levels of Pmel17, which is a marker of melanocyte growth and activation, cell proliferation marker Ki67, Filaggrin (FLG), Loricrin (LOR), and Transglutaminase 1 (TGM1), which are keratinization-related factors, were quantitated. Further, using RGB Profile Plot, which is an image analysis software, the fluorescence intensity distribution in the skin depth direction was investigated. The image analysis software used was “Image J” (available from imagej.nih.gov/ij/).
From skin at the elbow site of four AA women, skin tissues were collected through punch biopsy by a dermatologist. The collected tissues were halved with a scalpel, and the tissues were cultured for 5 days in the presence or absence of mTORC1 inhibitor, Torin 1 (Cayman Chemical, #10997) to a final concentration of 1 μM. In the tissue culture, a culture medium obtained by adding 10 v/v % Fetal Bovine Serum (FBS) and antibiotics (Antibiotic-Antimycotic) to Advanced-DMEM was used (both were from Life Technologies). After the completion of culture, frozen samples were rapidly produced, and immunohistochemical analyses were performed by the same procedure as in Example 1 (2) using their sections. Refer to Table 3 for the type of primary antibody, the tissue fixation conditions, and the concentration used. Further, melanin was visualized by Fontana-Masson staining, and the epidermal stratum corneum thickness and the melanin deposition area were calculated using an image analysis software (Image J).

[4] = tested on: cultured keratinocytes derived from human neonatal foreskin; test: Gene expression by quantitative PCR in Torin 1-treated cultured keratinocytes; assay type: cell-based; details: 24 hours culture, ANOVA, Dunnett test p<0.05
Protocol: Torin 1 was added to cultured keratinocytes derived from human neonatal foreskin, and the mixture was cultured for 24 hours in an environment of 37° C. and 5% CO2. For the cell culture, a culture medium obtained by adding a predetermined growth additive (Humedia KG2, manufactured by KURABO INDUSTRIES LTD.) to Epilife culture medium (Life Technologies) was used. RNA was extracted from the keratinocytes, and the gene expression was analyzed by quantitative PCR using a Taqman probe (Life Technologies).

mTORC1 = test: Organ culture of AA elbow skin with Torin 1: immunohistochemical analysis of mTOR phosphorylation; assay type: cell-based, human; details: Torin 1 1 μM, tissue culture 5 days; paired t-test p<0.05
Protocol: as §1, with “Thereafter, the sections were washed with PBS-T for 5 minutes 3 times in total and with PBS for 5 minutes once, mounted by aqueous encapsulant containing a nuclear-staining agent (H-1200: Vector Laboratories). Refer to Table 1 for the type of primary antibody, the tissue fixation conditions, and the concentration used.” left out
The produced preparations were subjected to tissue observation and photographing using an inverted microscope (AxioVision, manufactured by Carl Zeiss Vision International GmbH) or a confocal laser microscope (LSM710, manufactured by Carl Zeiss Vision International GmbH). The captured images were analyzed using an image analysis software, and the expression levels of Pmel17, which is a marker of melanocyte growth and activation, cell proliferation marker Ki67, Filaggrin (FLG), Loricrin (LOR), and Transglutaminase 1 (TGM1), which are keratinization-related factors, were quantitated. Further, using RGB Profile Plot, which is an image analysis software, the fluorescence intensity distribution in the skin depth direction was investigated. […]

SMILES	LC3-II protein in the cells [1]	amount of melanin (melanin deposition area) [2]	epidermal stratum corneum thickness [2]	localization of ATG5-ATG12 in the epidermis [3]	localization of ATG16L1 in the epidermis [3]	distribution of Filaggrin (FLG) in the epidermis ([3]; vs untreated skin)	distribution of Loricrin (LOR) in the epidermis ([3]; vs untreated skin)	distribution of Transglutaminase 1 (TGM1) in the epidermis ([3]; vs untreated skin)	proliferating cells (number of Ki67 positive cells) ([3]; vs untreated skin)	LC3 protein ([3]; paired t-test p<0.05)	p62 protein aggregation ([3]; paired t-test p<0.05)	gene expression of Involucrin (IVL) ([4]; depending on the dose)	gene expression of TGM1 ([4]; depending on the dose)	gene expression of SKP2 [4]	phosphorylation of mTOR (p-mTOR to mTOR) (mTORC1)
CC(=O)O[C@@H]1C[C@H](O)[C@@]23CO[C@@H](O)[C@]1(C)[C@@H]2C[C@@H](O)[C@]1(C)[C@@H]3C(=O)[C@H](OC(C)=O)[C@@]2(C)[C@H](c3ccoc3)C[C@H]3O[C@]321 [toosendanin]	LC3-II protein-increasing actions	–	–	–	–	–	–	–	–	–	–	–	–	–	–
CCC(=O)N1CCN(c2ccc(-n3c(=O)ccc4cnc5ccc(-c6cnc7ccccc7c6)cc5c43)cc2C(F)(F)F)CC1 [Torin 1]	–	statistically significantly decreased	statistically significantly decreased	the localization was normalized	the localization was normalized	restored to be localized by the epidermal granular layer	restored to be localized by the epidermal granular layer	restored to be localized by the epidermal granular layer	a decrease in proliferating cells was confirmed	increased	decreased	statistically significantly increased	statistically significantly increased	statistically significantly reducing	inhibition of phosphorylation of mTOR was observed
